# Where two headings read alike, the source gives them in different places.
# Experiments:
# Assay in all cases: Eurofins kinase selectivity profile against 380 other human recombinant kinases (Table S2)
# Format in all cases: biochemical
# [1] = target: T1, 380 human recombinant protein kinases (Homo sapiens, UniProt P51956); details: NEK3(h), read-out: Inhibition rate
# T1 construct: purchased Eurofins (Celle Lévescault)
# T1 sequence (P51956 1-506): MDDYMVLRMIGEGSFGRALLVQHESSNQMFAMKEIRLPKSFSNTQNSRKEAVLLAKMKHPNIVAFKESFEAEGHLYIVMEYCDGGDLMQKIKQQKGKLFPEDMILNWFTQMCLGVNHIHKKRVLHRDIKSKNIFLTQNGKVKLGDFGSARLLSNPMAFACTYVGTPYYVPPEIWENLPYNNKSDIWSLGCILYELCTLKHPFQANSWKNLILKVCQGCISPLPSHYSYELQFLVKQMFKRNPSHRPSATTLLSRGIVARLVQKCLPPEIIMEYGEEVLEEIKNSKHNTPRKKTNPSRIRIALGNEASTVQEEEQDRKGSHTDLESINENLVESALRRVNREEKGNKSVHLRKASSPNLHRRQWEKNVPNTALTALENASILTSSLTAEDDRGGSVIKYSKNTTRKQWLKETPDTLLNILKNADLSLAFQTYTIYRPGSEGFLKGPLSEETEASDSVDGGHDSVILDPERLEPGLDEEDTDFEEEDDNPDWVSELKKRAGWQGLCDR
# Method in brief: (§1)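 Values come from a contract kinase-profiling service that tested the compound at multiple concentrations across 380 recombinant human kinases, as an off-target check against the MK2 activity.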
# [2] = target: T2, 380 human recombinant protein kinases (Homo sapiens, UniProt Q9HC98); details: NEK6(h), read-out: Inhibition rate
# T2 construct: purchased Eurofins (Celle Lévescault)
# T2 sequence (Q9HC98 whole entry): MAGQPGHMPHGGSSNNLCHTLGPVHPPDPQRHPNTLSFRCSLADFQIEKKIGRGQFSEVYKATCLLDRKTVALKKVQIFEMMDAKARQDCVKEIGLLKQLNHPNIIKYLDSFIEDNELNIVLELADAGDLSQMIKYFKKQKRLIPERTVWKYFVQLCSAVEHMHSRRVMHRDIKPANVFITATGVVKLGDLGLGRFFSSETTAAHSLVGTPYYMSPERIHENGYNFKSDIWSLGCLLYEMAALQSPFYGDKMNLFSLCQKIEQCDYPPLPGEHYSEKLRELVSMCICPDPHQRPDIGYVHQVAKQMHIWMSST
# Method in brief: as §1
# [3] = target: T3, 380 human recombinant protein kinases (Homo sapiens, UniProt P52564); details: MKK6(h), read-out: Inhibition rate
# T3 construct: purchased Eurofins (Celle Lévescault)
# T3 sequence (P52564 1-334): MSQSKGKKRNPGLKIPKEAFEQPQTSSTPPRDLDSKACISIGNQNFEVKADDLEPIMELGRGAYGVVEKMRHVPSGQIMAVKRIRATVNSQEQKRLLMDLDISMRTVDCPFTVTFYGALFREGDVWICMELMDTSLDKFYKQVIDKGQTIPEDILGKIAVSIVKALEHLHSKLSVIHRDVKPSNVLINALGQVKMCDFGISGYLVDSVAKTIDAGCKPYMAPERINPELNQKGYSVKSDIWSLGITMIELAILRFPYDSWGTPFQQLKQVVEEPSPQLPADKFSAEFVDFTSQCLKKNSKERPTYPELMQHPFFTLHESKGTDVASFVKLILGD
# Method in brief: as §1
# [4] = target: T4, 380 human recombinant protein kinases (Homo sapiens, UniProt P31751); details: PKBβ(h), read-out: Inhibition rate
# T4 construct: purchased Eurofins (Celle Lévescault)
# Method in brief: as §1
# [5] = target: T5, 380 human recombinant protein kinases (Homo sapiens, UniProt Q9H422); details: HIPK3(h), read-out: Inhibition rate
# T5 construct: purchased Eurofins (Celle Lévescault)
# T5 sequence (Q9H422 whole entry): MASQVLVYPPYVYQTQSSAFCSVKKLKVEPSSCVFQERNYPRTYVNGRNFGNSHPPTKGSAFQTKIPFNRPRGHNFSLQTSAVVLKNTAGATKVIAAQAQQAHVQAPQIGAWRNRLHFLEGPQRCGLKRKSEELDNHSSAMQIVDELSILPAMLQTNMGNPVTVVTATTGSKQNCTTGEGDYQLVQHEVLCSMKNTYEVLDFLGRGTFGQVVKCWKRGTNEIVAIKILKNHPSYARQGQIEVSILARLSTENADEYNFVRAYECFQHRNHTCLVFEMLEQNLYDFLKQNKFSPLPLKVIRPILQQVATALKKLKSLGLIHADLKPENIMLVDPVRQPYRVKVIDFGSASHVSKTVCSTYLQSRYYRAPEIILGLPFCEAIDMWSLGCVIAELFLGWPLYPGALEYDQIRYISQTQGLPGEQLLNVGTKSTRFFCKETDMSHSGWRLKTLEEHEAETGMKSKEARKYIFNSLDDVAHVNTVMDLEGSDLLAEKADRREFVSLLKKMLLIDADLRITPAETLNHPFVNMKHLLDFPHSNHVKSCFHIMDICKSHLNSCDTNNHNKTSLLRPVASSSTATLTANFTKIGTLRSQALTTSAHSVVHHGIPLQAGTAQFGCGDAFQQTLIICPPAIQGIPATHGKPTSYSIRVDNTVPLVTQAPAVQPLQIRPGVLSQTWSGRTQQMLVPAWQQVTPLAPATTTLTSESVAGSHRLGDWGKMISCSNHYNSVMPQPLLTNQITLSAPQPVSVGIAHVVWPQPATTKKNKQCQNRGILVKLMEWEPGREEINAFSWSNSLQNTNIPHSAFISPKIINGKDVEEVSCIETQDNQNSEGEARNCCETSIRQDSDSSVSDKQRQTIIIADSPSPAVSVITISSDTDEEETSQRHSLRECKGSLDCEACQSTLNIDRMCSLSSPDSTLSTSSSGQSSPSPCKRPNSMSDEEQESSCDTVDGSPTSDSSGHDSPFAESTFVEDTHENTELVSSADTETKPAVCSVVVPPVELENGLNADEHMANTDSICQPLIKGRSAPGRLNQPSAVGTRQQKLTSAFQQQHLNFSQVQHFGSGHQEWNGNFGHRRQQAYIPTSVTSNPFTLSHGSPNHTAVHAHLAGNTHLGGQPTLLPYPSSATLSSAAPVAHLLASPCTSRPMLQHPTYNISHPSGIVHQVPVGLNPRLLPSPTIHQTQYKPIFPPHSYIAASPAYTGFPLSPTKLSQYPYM
# Method in brief: as §1
# [6] = target: T6, 380 human recombinant protein kinases (Homo sapiens, UniProt Q9UPE1); details: MSSK1(h), read-out: Inhibition rate
# T6 construct: purchased Eurofins (Celle Lévescault)
# T6 sequence (Q9UPE1 whole entry): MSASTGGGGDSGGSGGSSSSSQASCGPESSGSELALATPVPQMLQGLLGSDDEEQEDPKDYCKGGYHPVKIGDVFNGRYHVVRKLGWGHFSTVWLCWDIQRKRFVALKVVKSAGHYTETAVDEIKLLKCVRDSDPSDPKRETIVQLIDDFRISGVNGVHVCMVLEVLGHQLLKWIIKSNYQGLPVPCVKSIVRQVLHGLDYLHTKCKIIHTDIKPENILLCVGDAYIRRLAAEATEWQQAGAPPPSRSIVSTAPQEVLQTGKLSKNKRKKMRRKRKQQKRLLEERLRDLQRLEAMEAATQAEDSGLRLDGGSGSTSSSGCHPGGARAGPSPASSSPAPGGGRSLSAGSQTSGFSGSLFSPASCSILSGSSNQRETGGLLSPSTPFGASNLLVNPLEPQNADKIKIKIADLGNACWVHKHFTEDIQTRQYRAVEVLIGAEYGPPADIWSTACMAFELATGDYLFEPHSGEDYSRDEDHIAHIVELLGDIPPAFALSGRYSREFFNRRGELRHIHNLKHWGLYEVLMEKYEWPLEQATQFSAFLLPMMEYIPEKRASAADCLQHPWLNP
# Method in brief: as §1
# [7] = target: T7, 380 human recombinant protein kinases (Homo sapiens, UniProt P00519, Y253F); details: Abl(Y253F)(h), read-out: Inhibition rate
# T7 construct: purchased Eurofins (Celle Lévescault)
# Method in brief: as §1
# [8] = target: T8, 380 human recombinant protein kinases (Homo sapiens, UniProt P11362); details: FGFR1(h), read-out: Inhibition rate
# T8 construct: purchased Eurofins (Celle Lévescault)
# T8 sequence (P11362 22-822): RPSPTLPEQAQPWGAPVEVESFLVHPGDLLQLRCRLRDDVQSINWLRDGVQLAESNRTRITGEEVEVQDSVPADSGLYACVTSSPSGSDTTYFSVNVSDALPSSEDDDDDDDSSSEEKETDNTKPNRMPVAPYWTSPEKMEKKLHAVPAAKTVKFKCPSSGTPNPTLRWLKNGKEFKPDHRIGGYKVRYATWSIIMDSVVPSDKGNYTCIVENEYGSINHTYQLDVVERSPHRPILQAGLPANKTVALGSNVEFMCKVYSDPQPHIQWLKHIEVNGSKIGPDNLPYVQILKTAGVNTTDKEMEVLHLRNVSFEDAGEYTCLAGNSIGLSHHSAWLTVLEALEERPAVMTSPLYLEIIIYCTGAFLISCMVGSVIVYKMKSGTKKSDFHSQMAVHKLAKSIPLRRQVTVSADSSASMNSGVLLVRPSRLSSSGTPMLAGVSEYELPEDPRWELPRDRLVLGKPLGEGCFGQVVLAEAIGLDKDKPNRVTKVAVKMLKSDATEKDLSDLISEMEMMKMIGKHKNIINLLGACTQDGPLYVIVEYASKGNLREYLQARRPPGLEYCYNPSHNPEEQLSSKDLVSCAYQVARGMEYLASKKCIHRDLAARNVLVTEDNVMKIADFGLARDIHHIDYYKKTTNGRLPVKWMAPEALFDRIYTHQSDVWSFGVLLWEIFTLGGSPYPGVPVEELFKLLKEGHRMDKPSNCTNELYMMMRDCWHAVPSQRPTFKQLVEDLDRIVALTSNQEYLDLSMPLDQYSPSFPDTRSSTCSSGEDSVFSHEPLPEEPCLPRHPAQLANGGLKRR
# Method in brief: as §1
# [9] = target: T9, 380 human recombinant protein kinases (Homo sapiens, UniProt Q7KZI7); details: PAR-1Bα(h), read-out: Inhibition rate
# T9 construct: purchased Eurofins (Celle Lévescault)
# T9 sequence (Q7KZI7 whole entry): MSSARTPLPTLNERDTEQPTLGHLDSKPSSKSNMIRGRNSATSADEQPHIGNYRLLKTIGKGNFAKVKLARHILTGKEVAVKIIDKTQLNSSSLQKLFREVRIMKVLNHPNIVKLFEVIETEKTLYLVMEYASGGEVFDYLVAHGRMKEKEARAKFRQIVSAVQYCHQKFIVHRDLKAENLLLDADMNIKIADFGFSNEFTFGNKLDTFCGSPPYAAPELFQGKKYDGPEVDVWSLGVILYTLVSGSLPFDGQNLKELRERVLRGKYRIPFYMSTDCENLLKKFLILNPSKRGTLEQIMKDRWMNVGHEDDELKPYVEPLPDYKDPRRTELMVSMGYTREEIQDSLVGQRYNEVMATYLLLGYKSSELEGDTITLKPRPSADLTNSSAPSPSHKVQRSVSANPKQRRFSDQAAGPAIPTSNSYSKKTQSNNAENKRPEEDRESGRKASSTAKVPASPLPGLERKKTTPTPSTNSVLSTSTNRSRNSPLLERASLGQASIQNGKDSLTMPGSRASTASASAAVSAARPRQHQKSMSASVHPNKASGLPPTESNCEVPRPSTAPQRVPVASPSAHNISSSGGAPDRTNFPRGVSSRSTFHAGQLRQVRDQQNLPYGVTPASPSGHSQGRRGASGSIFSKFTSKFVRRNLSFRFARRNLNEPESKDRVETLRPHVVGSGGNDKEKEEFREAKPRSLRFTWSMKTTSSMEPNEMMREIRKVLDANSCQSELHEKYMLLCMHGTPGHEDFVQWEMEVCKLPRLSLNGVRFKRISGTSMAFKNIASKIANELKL
# Method in brief: as §1
# [10] = target: T10, 380 human recombinant protein kinases (Homo sapiens, UniProt Q16566); details: CaMKIV(h), read-out: Inhibition rate
# T10 construct: purchased Eurofins (Celle Lévescault)
# T10 sequence (Q16566 1-473): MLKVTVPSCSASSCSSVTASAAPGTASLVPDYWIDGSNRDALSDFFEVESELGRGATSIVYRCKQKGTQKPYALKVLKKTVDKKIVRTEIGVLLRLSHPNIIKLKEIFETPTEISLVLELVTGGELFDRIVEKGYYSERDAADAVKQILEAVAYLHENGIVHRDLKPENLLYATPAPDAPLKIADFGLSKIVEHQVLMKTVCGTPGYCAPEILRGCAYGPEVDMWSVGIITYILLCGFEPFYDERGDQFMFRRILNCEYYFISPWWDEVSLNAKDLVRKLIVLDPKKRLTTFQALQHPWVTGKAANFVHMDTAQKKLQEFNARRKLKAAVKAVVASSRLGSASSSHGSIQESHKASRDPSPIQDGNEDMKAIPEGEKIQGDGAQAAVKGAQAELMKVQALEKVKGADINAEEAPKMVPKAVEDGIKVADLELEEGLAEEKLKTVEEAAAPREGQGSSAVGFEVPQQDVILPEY
# Method in brief: as §1
# [11] = target: T11, 380 human recombinant protein kinases (Homo sapiens, UniProt P42336); details: read-out: Inhibition rate (%); for inhibition at 0.01 µM: 10 nM; for inhibition at 0.1 µM: 100 nM; for inhibition at 1 µM: 1000 nM
# T11 construct: purchased Eurofins (Celle Lévescault)
# T11 sequence (P42336 whole entry): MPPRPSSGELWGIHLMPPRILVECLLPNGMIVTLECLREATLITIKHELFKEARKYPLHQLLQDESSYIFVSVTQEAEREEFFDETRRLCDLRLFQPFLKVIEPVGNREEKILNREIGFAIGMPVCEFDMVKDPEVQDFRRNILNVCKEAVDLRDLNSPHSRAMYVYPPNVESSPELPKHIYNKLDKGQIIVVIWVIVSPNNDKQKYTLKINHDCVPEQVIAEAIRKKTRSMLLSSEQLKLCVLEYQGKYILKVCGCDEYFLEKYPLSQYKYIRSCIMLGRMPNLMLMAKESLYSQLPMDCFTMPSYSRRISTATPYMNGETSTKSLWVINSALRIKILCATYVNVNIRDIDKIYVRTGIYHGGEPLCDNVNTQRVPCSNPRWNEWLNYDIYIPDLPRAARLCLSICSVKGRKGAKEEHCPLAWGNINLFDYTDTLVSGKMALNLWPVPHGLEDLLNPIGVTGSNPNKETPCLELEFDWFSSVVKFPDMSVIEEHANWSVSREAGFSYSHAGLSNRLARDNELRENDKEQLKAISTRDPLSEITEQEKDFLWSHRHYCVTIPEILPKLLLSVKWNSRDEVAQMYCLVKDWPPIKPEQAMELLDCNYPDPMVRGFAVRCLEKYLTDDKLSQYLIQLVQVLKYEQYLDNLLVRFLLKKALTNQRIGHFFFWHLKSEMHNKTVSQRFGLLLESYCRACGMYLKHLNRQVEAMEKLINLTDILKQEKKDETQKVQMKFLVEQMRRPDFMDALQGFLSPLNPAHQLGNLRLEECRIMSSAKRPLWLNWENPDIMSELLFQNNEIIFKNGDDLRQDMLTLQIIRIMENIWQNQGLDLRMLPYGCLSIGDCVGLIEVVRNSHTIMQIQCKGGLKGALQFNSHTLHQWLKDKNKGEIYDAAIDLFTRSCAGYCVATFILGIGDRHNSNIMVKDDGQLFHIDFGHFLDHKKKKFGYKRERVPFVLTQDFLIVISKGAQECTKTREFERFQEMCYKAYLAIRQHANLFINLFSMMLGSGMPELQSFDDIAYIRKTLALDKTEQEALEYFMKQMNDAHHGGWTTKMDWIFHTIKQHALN
# Method in brief: as §1
structure (smiles),measurement,setting,value
C=CC(=O)Nc1cc(-c2cc(-c3cc4c([nH]3)CCNC4=O)ccn2)ccc1OC(F)(F)F [compound 11],inhibition at 0.01 µM,[1]; 10 nM,-6%
same,inhibition at 0.1 µM,[1]; 100 nM,0%
same,inhibition at 1 µM,[1]; 1000 nM,-1%
same,inhibition at 0.01 µM,[2]; 10 nM,-4%
same,inhibition at 0.1 µM,[2]; 100 nM,-5%
same,inhibition at 1 µM,[2]; 1000 nM,-3%
same,inhibition at 0.01 µM,[3]; 10 nM,-4%
same,inhibition at 0.1 µM,[3]; 100 nM,-9%
same,inhibition at 1 µM,[3]; 1000 nM,-15%
same,inhibition at 0.01 µM,[4]; 10 nM,1%
same,inhibition at 0.1 µM,[4]; 100 nM,3%
same,inhibition at 1 µM,[4]; 1000 nM,0%
same,inhibition at 0.01 µM,[5]; 10 nM,-9%
same,inhibition at 0.1 µM,[5]; 100 nM,-8%
same,inhibition at 1 µM,[5]; 1000 nM,1%
same,inhibition at 0.01 µM,[6]; 10 nM,-7%
same,inhibition at 0.1 µM,[6]; 100 nM,-4%
same,inhibition at 1 µM,[6]; 1000 nM,0%
same,inhibition at 0.01 µM,[7]; 10 nM,0%
same,inhibition at 0.1 µM,[7]; 100 nM,2%
same,inhibition at 1 µM,[7]; 1000 nM,21%
same,inhibition at 0.01 µM,[8]; 10 nM,-2%
same,inhibition at 0.1 µM,[8]; 100 nM,6%
same,inhibition at 1 µM,[8]; 1000 nM,7%
same,inhibition at 0.01 µM,[9]; 10 nM,-6%
same,inhibition at 0.1 µM,[9]; 100 nM,-2%
same,inhibition at 1 µM,[9]; 1000 nM,-3%
same,inhibition at 0.01 µM,[10]; 10 nM,9%
same,inhibition at 0.1 µM,[10]; 100 nM,8%
same,inhibition at 1 µM,[10]; 1000 nM,6%
same,inhibition at 0.01 µM,[11]; PI3 Kinase (p110α/p65α)(h),3%
same,inhibition at 0.1 µM,[11]; PI3 Kinase (p110α/p65α)(h),0%
same,inhibition at 1 µM,[11]; PI3 Kinase (p110α/p65α)(h),1%
same,inhibition at 0.01 µM,[11]; PI3 Kinase (p110α/p85α)(h),-1%
same,inhibition at 0.1 µM,[11]; PI3 Kinase (p110α/p85α)(h),0%
same,inhibition at 1 µM,[11]; PI3 Kinase (p110α/p85α)(h),-1%
